In patent publication US4517181A, “Mammalian PGRF” (The Salk Institute for Biological Studies, priority 1982, dated 1985):

Columns and labels:
[1] = system: pituitary growth hormone release (serum ir-GH); experiment: in vivo release of pituitary growth hormone after one single intravenous injection in normal rats; parameters: species or system rat; conditions: for serum ir-GH: rat
Excerpt: In addition to the in vitro tests for secretion of growth hormone, in vivo experiments were also run by injecting the synthetic peptide into normal male rats about 200 g. body weight, anesthetized with pentobarbital.

[2] = system: cells of rat pituitary glands; experiment: in vitro GH release, rat pituitary cell monolayer culture bioassay (ir GH by radioimmunoassay); format: cell-based; conditions: for GH secretion in vitro % of controls: Table I
Description: To determine the effectiveness of the peptides to promote the release of growth hormone, in vitro assays are carried out using synthetic PGRF (1-40) of Example II in side-by-side comparison with equimolar concentrations of the extracted and purified native PGRF (1-40) and of a GRF Reference Standard having a known effectiveness to promote the release of growth hormone from pituitary cells. The GRF Reference standard is described and defined in Brazeau, et al., Endocrinology, Vol. 110, A538(1982) and is an amount of a preparation of rat hypothalamic origin that produces a half-maximal response in terms of GH release in a pituitary cell monolayer bioassay. Cultures are used which include cells of rat pituitary glands removed some four to five days previously. Both cultures of a defined standard medium and cultures which are considered optimal for the secretion of growth hormone are used for the comparative testing, in the general manner described in Brazeau, et al. Regulatory Peptides, 1, 255, 1981. Incubation with the substance to be tested is carried out for 3 to 4 hours, and aliquots of the culture medium are removed and processed to measure their contents in inmunoreactive GH(ir GH) by a well-characterized radioimmunoassay.
The in vitro assays described in Example VII are repeated using Native PGRF(1-40) and Native PGRF(1-44) and the results are set forth in following Table III: […]

SMILES: CC[C@H](C)[C@H](NC(=O)[C@H](C)NC(=O)[C@H](CC(=O)O)NC(=O)[C@H](C)NC(=O)[C@@H](N)Cc1ccc(O)cc1)C(=O)N[C@@H](Cc1ccccc1)C(=O)N[C@H](C(=O)N[C@@H](CC(N)=O)C(=O)N[C@@H](CO)C(=O)N[C@@H](Cc1ccc(O)cc1)C(=O)N[C@@H](CCCNC(=N)N)C(=O)N[C@@H](CCCCN)C(=O)N[C@H](C(=O)N[C@@H](CC(C)C)C(=O)NCC(=O)N[C@@H](CCC(N)=O)C(=O)N[C@@H](CC(C)C)C(=O)N[C@@H](CO)C(=O)N[C@@H](C)C(=O)N[C@@H](CCCNC(=N)N)C(=O)N[C@@H](CCCCN)C(=O)N[C@@H](CC(C)C)C(=O)N[C@@H](CC(C)C)C(=O)N[C@@H](CCC(N)=O)C(=O)N[C@@H](CC(=O)O)C(=O)N[C@H](C(=O)N[C@@H](CCSC)C(=O)N[C@@H](CO)C(=O)N[C@@H](CCCNC(=N)N)C(=O)N[C@@H](CCC(N)=O)C(=O)N[C@@H](CCC(N)=O)C(=O)NCC(=O)N[C@@H](CCC(=O)O)C(=O)N[C@@H](CO)C(=O)N[C@@H](CC(N)=O)C(=O)N[C@@H](CCC(N)=O)C(=O)N[C@@H](CCC(=O)O)C(=O)N[C@@H](CCCNC(=N)N)C(=O)NCC(=O)N[C@@H](C)C(=O)O)[C@@H](C)CC)C(C)C)[C@@H](C)O [Synthetic PGRF (1-40), PGRF (1-40)]
- serum ir-GH ([1]; 0.01 μg i.v., +5 min): 284 ± 20 nanograms/ml
- serum ir-GH ([1]; 0.01 μg i.v., +10 min): 238 ± 51 nanograms/ml
- serum ir-GH ([1]; 0.01 μg i.v., +15 min): 201 ± 47 nanograms/ml
- serum ir-GH ([1]; 0.01 μg i.v., +30 min): 261 ± 50 nanograms/ml
- serum ir-GH ([1]; 0.01 μg i.v., +60 min): 299 ± 25 nanograms/ml
- serum ir-GH ([1]; 0.01 μg i.v., -1 min (before injection)): 173 ± 23 nanograms/ml
- serum ir-GH ([1]; 0.1 μg i.v., +5 min): 694 ± 246 nanograms/ml
- serum ir-GH ([1]; 0.1 μg i.v., +10 min): 582 ± 290 nanograms/ml
- serum ir-GH ([1]; 0.1 μg i.v., +15 min): 758 ± 562 nanograms/ml
- serum ir-GH ([1]; 0.1 μg i.v., +30 min): 280 ± 70 nanograms/ml
- serum ir-GH ([1]; 0.1 μg i.v., +60 min): 424 ± 129 nanograms/ml
- serum ir-GH ([1]; 0.1 μg i.v., -1 min (before injection)): 276 ± 126 nanograms/ml
- serum ir-GH ([1]; 1.0 μg i.v., +5 min): 4551 ± 1825 nanograms/ml
- serum ir-GH ([1]; 1.0 μg i.v., +10 min): 1748 ± 564 nanograms/ml
- serum ir-GH ([1]; 1.0 μg i.v., +15 min): 730 ± 158 nanograms/ml
- serum ir-GH ([1]; 1.0 μg i.v., +30 min): 234 ± 53 nanograms/ml
- serum ir-GH ([1]; 1.0 μg i.v., +60 min): 267 ± 129 nanograms/ml
- serum ir-GH ([1]; 1.0 μg i.v., -1 min (before injection)): 142 ± 24 nanograms/ml
- serum ir-GH ([1]; 10.0 μg i.v., +5 min): 7077 ± 1943 nanograms/ml
- serum ir-GH ([1]; 10.0 μg i.v., +10 min): 4676 ± 585 nanograms/ml
- serum ir-GH ([1]; 10.0 μg i.v., +15 min): 2464 ± 378 nanograms/ml
- serum ir-GH ([1]; 10.0 μg i.v., +30 min): 616 ± 112 nanograms/ml
- serum ir-GH ([1]; 10.0 μg i.v., +60 min): 223 ± 26 nanograms/ml
- serum ir-GH ([1]; 10.0 μg i.v., -1 min (before injection)): 234 ± 76 nanograms/ml
- ED50 ([2]; GH release in vitro, Example VII): about 113 picograms
- GH secretion in vitro % of controls ([2]; 10 fmoles): 269 ± 20 % of controls
- GH secretion in vitro % of controls ([2]; 100 fmoles): 701 ± 6 % of controls
- GH secretion in vitro % of controls ([2]; 1000 fmoles): 990 ± 42 % of controls
- biological activity compared with the native peptide ([2]; equimolar ratios, Example VII): has the full biological activity of the native peptide

SMILES: CC[C@H](C)[C@H](NC(=O)[C@H](C)NC(=O)[C@H](CC(=O)O)NC(=O)[C@H](C)NC(=O)[C@@H](N)Cc1ccc(O)cc1)C(=O)N[C@@H](Cc1ccccc1)C(=O)N[C@H](C(=O)N[C@@H](CC(N)=O)C(=O)N[C@@H](CO)C(=O)N[C@@H](Cc1ccc(O)cc1)C(=O)N[C@@H](CCCNC(=N)N)C(=O)N[C@@H](CCCCN)C(=O)N[C@H](C(=O)N[C@@H](CC(C)C)C(=O)NCC(=O)N[C@@H](CCC(N)=O)C(=O)N[C@@H](CC(C)C)C(=O)N[C@@H](CO)C(=O)N[C@@H](C)C(=O)N[C@@H](CCCNC(=N)N)C(=O)N[C@@H](CCCCN)C(=O)N[C@@H](CC(C)C)C(=O)N[C@@H](CC(C)C)C(=O)N[C@@H](CCC(N)=O)C(=O)N[C@@H](CC(=O)O)C(=O)N[C@H](C(=O)N[C@@H](CCSC)C(=O)N[C@@H](CO)C(=O)N[C@@H](CCCNC(=N)N)C(=O)N[C@@H](CCC(N)=O)C(=O)N[C@@H](CCC(N)=O)C(=O)NCC(=O)N[C@@H](CCC(=O)O)C(=O)N[C@@H](CO)C(=O)N[C@@H](CC(N)=O)C(=O)N[C@@H](CCC(N)=O)C(=O)N[C@@H](CCC(=O)O)C(=O)N[C@@H](CCCNC(=N)N)C(=O)NCC(=O)N[C@@H](C)C(=O)N[C@@H](CCCNC(=N)N)C(=O)N[C@@H](C)C(=O)N[C@@H](CCCNC(=N)N)C(=O)N[C@@H](CC(C)C)C(N)=O)[C@@H](C)CC)C(C)C)[C@@H](C)O [synthetic PGRF(1-44)-amide, PGRF(1-44)-amide]
- GH-releasing activity when injected in laboratory animals (rats) ([1]; compared with PGRF(1-40) in Table II): shows the same type of GH-releasing activity as PGRF(1-40)
- potency compared with native PGRF(1-44) (further testing) [2]: substantially the same potency as native PGRF(1-44)
